This note sets out measurements from ChEMBL document CHEMBL1132928 (J Med Chem, 2000).

Assay [1] is described as follows: In vitro adenylate cyclase activity using rat liver plasma membrane bioassay. Format: tissue-based.
Assay [2] concerns the target Adenylate cyclase type 5 (Rattus norvegicus) (UniProt Q04400). The assay is described as follows: Percent stimulation ofcAMP production was measured in vitro using rat liver plasma membrane bioassay. The assay is classed as functional, cell-free.
The next assay deals with Glucagon receptor (Rattus norvegicus, UniProt P30082). Put plainly: In vitro receptor binding affinity (95% CL) using rat liver plasma membrane bioassay.
The nature of assay [3]: pA2 values were obtained from the dose / response plots. Format: ADME.
Assay [4] concerns the target Adenylate cyclase type 5 (Rattus norvegicus) (UniProt Q04400). Put plainly: Percent stimulation ofcAMP production was measured in vitro using rat liver plasma membrane bioassay; none. The assay is classed as functional, cell-free.
Assay [5] has as its target Glucagon receptor (Rattus norvegicus) (UniProt P30082). The assay is described as follows: In vitro receptor binding affinity using rat liver plasma membrane bioassay; inactive.
Assay [6] in a line: In vitro adenylate cyclase activity using rat liver plasma membrane bioassay. Value is inactive up to 50 uM.

The source made the active and inactive calls. No cut-off for these calls is given here. Where a SMILES comes first, the peptide text is derived from it. Bridges are numbered along the chain shown (N, C = ends).

Adenylate cyclase type 5 (Rattus norvegicus), sequence (Q04400 whole entry): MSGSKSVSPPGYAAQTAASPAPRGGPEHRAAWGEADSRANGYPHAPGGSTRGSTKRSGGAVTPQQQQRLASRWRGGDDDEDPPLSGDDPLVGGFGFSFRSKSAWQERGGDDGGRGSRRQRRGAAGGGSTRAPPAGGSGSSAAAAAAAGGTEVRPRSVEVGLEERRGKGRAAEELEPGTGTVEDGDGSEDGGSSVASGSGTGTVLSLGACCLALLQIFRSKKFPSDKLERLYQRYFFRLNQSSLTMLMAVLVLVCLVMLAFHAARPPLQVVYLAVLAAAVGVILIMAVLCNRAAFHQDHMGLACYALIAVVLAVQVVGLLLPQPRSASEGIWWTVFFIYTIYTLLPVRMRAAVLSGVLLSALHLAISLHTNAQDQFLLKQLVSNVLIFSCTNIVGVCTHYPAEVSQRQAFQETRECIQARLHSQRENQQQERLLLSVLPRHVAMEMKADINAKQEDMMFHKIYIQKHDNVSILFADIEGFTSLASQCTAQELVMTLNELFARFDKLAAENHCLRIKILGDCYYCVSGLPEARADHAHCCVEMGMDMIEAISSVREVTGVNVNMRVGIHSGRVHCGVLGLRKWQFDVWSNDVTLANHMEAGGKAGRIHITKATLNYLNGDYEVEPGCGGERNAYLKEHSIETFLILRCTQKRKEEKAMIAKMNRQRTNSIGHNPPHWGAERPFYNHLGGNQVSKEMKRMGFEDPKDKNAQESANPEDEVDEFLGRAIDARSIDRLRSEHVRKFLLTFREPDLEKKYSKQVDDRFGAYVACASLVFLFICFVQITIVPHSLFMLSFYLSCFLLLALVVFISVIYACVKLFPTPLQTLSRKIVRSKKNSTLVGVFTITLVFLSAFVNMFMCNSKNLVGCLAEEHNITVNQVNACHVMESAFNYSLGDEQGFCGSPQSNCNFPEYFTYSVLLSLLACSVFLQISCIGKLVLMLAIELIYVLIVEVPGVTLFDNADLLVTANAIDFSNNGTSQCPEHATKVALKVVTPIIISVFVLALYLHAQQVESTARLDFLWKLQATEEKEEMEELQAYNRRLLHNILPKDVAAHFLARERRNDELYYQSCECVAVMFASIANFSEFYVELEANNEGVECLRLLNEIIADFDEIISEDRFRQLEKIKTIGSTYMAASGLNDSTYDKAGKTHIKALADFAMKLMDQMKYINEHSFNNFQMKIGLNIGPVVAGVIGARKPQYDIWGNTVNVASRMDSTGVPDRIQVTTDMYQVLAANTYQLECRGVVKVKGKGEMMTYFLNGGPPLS
Glucagon receptor, sequence (P30082 whole entry): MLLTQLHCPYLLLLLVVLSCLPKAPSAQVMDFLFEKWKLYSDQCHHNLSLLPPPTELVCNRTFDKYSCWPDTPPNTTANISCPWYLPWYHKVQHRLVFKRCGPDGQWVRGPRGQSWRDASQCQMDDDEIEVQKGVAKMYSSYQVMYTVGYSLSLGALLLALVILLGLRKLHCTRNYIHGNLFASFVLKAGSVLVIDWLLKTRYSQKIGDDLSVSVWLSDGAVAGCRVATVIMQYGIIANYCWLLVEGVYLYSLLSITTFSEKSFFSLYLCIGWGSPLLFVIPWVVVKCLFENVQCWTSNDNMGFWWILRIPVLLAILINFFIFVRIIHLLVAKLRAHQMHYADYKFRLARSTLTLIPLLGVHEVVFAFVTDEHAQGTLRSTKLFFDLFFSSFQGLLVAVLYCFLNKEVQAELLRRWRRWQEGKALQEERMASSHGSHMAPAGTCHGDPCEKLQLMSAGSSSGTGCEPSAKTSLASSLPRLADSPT
Glucagon receptor (Rattus norvegicus), sequence (P30082 whole entry): as above

In assay [1], `CSCC[C@@H](NC(=O)[C@@H](CC(C)C)NC(=O)[C@@H](Cc1c[nH]c2ccccc12)NC(=O)[C@@H](CCC(N)=O)NC(=O)[C@H](NC(=O)[C@H](Cc1ccccc1)NC(=O)[C@H]1CCC(=O)NCCCC[C@H](NC(=O)[C@H](CCCCN)NC(=O)[C@@H](CO)NC(=O)[C@@H](CC(=O)O)NC(=O)[C@@H](CC(C)C)NC(=O)[C@@H](Cc2ccc(O)cc2)NC(=O)[C@@H](CCCCN)NC(=O)[C@@H](CO)NC(=O)[C@@H](Cc2ccc(O)cc2)NC(=O)[C@@H](CC(=O)O)NC(=O)[C@@H](CO)NC(=O)[C@H](NC(=O)[C@@H](Cc2ccccc2)NC(=O)[C@H](NC(=O)CNC(=O)[C@@H](CCC(N)=O)NC(=O)[C@@H](CO)NC(=O)[C@H](N)Cc2c[nH]cn2)[C@H](C)O)[C@H](C)O)C(=O)N[C@@H](C)C(=O)N[C@H](CCC(N)=O)C(=O)N1)C(C)C)C(=O)N[C@H](CC(N)=O)C(=O)N[C@@H](C(N)=O)[C@H](C)O` registered a Potency of 1.6%. Moreover, the Max stimulation in assay [2] worked out at 60%.

In general, IC50 refers to the concentration at which inhibition is half-maximal. Higher therefore signals weaker potency. As usually defined, the pA2 is a measure of antagonist potency on a negative log scale. A lower pA2 goes with lower antagonist potency. As to `CSCC[C@H](NC(=O)[C@H](CC(C)C)NC(=O)[C@H](Cc1c[nH]c2ccccc12)NC(=O)[C@H](CCC(N)=O)NC(=O)[C@@H](NC(=O)[C@H](Cc1ccccc1)NC(=O)[C@H](CCC(=O)O)NC(=O)[C@H](CCC(N)=O)NC(=O)[C@H](C)NC(=O)[C@H](CCCCN)NC(=O)[C@H](CCCCN)NC(=O)[C@H](CO)NC(=O)[C@H](CC(=O)O)NC(=O)[C@H](CC(C)C)NC(=O)[C@H](Cc1ccc(O)cc1)NC(=O)[C@@H]1CCCCNC(=O)C[C@H](NC(=O)[C@H](CO)NC(=O)[C@@H](NC(=O)[C@H](Cc2ccccc2)NC(=O)[C@@H](NC(=O)CNC(=O)[C@H](CCC(N)=O)NC(=O)[C@H](CO)NC(=O)[C@@H](N)Cc2cnc[nH]2)[C@@H](C)O)[C@@H](C)O)C(=O)N[C@@H](Cc2ccc(O)cc2)C(=O)N[C@@H](CO)C(=O)N1)C(C)C)C(=O)N[C@@H](CC(N)=O)C(=O)N[C@H](C(N)=O)[C@@H](C)O` (H-HSQGTFTSDYSKYLDSKKAQEFVQWLMNT-NH2; lactam 9-12), the IC50 on Glucagon receptor is 250 nM. Also, the pA2 in assay [3] worked out at 6.3.

On to `CSCC[C@H](NC(=O)[C@H](CC(C)C)NC(=O)[C@H](Cc1c[nH]c2ccccc12)NC(=O)[C@H](CCC(N)=O)NC(=O)[C@@H](NC(=O)[C@@H](Cc1ccccc1)NC(=O)[C@@H]1CCC(=O)NCCCC[C@H](NC(=O)[C@H](CO)NC(=O)[C@@H](CC(=O)O)NC(=O)[C@@H](CC(C)C)NC(=O)[C@H](Cc2ccc(O)cc2)NC(=O)[C@H]2CCCCNC(=O)C[C@H](NC(=O)[C@H](CO)NC(=O)[C@H](NC(=O)[C@@H](Cc3ccccc3)NC(=O)[C@H](NC(=O)CNC(=O)[C@@H](CCC(N)=O)NC(=O)[C@@H](CO)NC(=O)[C@H](N)Cc3c[nH]cn3)[C@H](C)O)[C@H](C)O)C(=O)N[C@@H](Cc3ccc(O)cc3)C(=O)N[C@H](CO)C(=O)N2)C(=O)N[C@@H](CCCCN)C(=O)N[C@H](C)C(=O)N[C@@H](CCC(N)=O)C(=O)N1)C(C)C)C(=O)N[C@@H](CC(N)=O)C(=O)N[C@H](C(N)=O)[C@@H](C)O`, for which, in assay [4], the Max stimulation entry was “inactive”. In addition, in assay [5], the IA result is “inactive”. Moreover, the Potency entry in assay [6] is “Inactive up to 50 uM”.

Turning to GLUCAGON, the Potency in assay [1] was 100%. In assay [2], this molecule registered a Max stimulation of 100%.

As a reminder, the EC50 is the concentration needed to bring the measured effect to its halfway point. Read a low EC50 as an effect from little substance. Regarding `CSCC[C@H](NC(=O)[C@H](CC(C)C)NC(=O)[C@H](Cc1c[nH]c2ccccc12)NC(=O)[C@H](CCC(N)=O)NC(=O)[C@@H](NC(=O)[C@H](Cc1ccccc1)NC(=O)[C@@H]1CCC(=O)NCCCC[C@H](NC(=O)[C@H](CCCCN)NC(=O)[C@H](CO)NC(=O)[C@H](CC(=O)O)NC(=O)[C@H](CC(C)C)NC(=O)[C@H](Cc2ccc(O)cc2)NC(=O)[C@H](CCCCN)NC(=O)[C@H](CO)NC(=O)[C@H](Cc2ccc(O)cc2)NC(=O)[C@H](CC(=O)O)NC(=O)[C@H](CO)NC(=O)[C@@H](NC(=O)[C@H](Cc2ccccc2)NC(=O)[C@@H](NC(=O)CNC(=O)[C@H](CCC(N)=O)NC(=O)[C@H](CO)NC(=O)[C@@H](N)Cc2c[nH]cn2)[C@@H](C)O)[C@@H](C)O)C(=O)N[C@@H](C)C(=O)N[C@@H](CCC(N)=O)C(=O)N1)C(C)C)C(=O)N[C@@H](CC(N)=O)C(=O)N[C@H](C(N)=O)[C@@H](C)O`, on Glucagon receptor, the EC50 was found to be 320 nM and the IC50 turned out to be 54 nM.
